Source: ChEMBL document CHEMBL6109124, “Identification of effective anti-osteosarcoma agents via screening of an in-house NQO1-targeted compound library” (Bioorg Med Chem, 2025)

What was measured:
[1] = Cytotoxicity against HUVEC assessed as cell growth inhibition measured after 72 hrs by MTT assay; format: toxicity, cell-based; conditions: human, HUVEC cells
HOS-TE85 [2] = test: Cytotoxicity against human MNNG cells assessed as cell growth inhibition at 10 uM measured after 72 hrs by MTT assay relative to control; format: functional; conditions: read-out: GI
HOS-TE85 [3] = test: Cytotoxicity against human MNNG cells assessed as cell growth inhibition at 1 uM measured after 72 hrs by MTT assay relative to control; format: functional; conditions: read-out: GI
[4] = Selectivity index, ratio of IC50 for cytotoxicity against HUVEC to IC50 for cytotoxicity against human MNNG cells; format: toxicity, cell-based; conditions: HUVEC and human MNNG cells, read-out: Ratio IC50
HOS-TE85 [5] = test: Cytotoxicity against human MNNG cells assessed as cell growth inhibition measured after 72 hrs by MTT assay; format: functional, cell-based; conditions: HOS-TE85, 72 h
[6] = Toxicity in human MNNG cell xenografted Balb/c mouse assessed as reduction in Cr level at 30 mg/kg, iv administered every 2 days for 3 weeks and measured post last dose; format: organism-based; conditions: in vivo, 504 h, time 21 day
[7] = Toxicity in human MNNG cell xenografted Balb/c mouse assessed as reduction in AST level at 30 mg/kg, iv administered every 2 days for 3 weeks and measured post last dose; format: organism-based; conditions: in vivo, 504 h, time 21 day
HOS-TE85 [8] = test: Antitumor activity against human MNNG cells xenografted in Balb/c mouse assessed as tumor growth inhibition at 30 mg/kg, iv administered every 2 days for 3 weeks and measured daily during compound dosing relative to control; format: functional; conditions: HOS-TE85, 504 h, time 21 day, read-out: TGI
[9] = Toxicity in human MNNG cell xenografted Balb/c mouse assessed as body weight loss at 30 mg/kg, iv administered every 2 days for 3 weeks and measured every other day during compound dosing; format: organism-based; conditions: in vivo, 504 h, time 21 day

## N#Cc1nc2c(nc1C#N)-c1cc(F)c(F)cc1/C2=N\NC1CCCCC1
[1]
  IC50 at 72 h: 17.2 µM
HOS-TE85 [2]
  inhibition of growth at 10 µM: 90.4%
HOS-TE85 [3]
  inhibition of growth at 1 µM: 31.2%
[4]
  selectivity ratio: 7.73
HOS-TE85 [5]
  IC50: 2.22 µM

## CC1(C)CCC2=C(O1)c1ccccc1C(=O)C2=O [LAPACHONE]
[1]
  IC50 at 72 h: 12.5 µM
[6]
  Activity: Toxic
[7]
  Activity: Toxic
[4]
  selectivity ratio: 5.16
HOS-TE85 [8]
  inhibition in vivo at 30 mg/kg: 58.9%
[9]
  Activity: Non-toxic
HOS-TE85 [5]
  IC50: 2.42 µM
